The results in this text go back to PubChem BioAssay (NCI).

The structures appear in SMILES notation.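 All cell lines were grown in 96-well plates and treated with compound for 48 hours. TGI denotes the concentration required for complete inhibition of growth.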 Where only a bound is given, the exact number is not on record here.

In one assay the test system is SK-OV-3 ovarian. Description: growth of human tumour cells (NCI), 48 h.
In turn, `COc1cc2c(cc1OC)C1C=NC(C2)c2cc(OC)c(OC)cc21` (stereo not given) gave a TGI of more than 100 µM.

For the compound `CCC1(c2ccccc2)C(=O)N=C(c2ccccc2)N1CCc1ccccc1` (stereo not given), the TGI is more than 100 µM.

Compound `COc1ccc(C2SCC(=O)N2c2ccc(-c3ccc(-n4c(-c5ccccc5)nc5ccccc5c4=O)cc3)cc2)cc1OC` (stereo not given) showed a TGI of more than 100 µM.

`C=CCC1(OCc2ccccc2)C(=O)C(=O)OC1C1COC(C)(C)O1` (stereo not given): the TGI was more than 100 µM.

In the next assay the test system is SN12C renal. Description: growth of human tumour cells (NCI), 48 h.
On to `COc1cc2c(cc1OC)C1C=NC(C2)c2cc(OC)c(OC)cc21` (stereo not given), for which the TGI is more than 100 µM.

`CCC1(c2ccccc2)C(=O)N=C(c2ccccc2)N1CCc1ccccc1` (stereo not given) returned a TGI of more than 100 µM.

Turning to `COc1ccc(C2SCC(=O)N2c2ccc(-c3ccc(-n4c(-c5ccccc5)nc5ccccc5c4=O)cc3)cc2)cc1OC` (stereo not given), the TGI was more than 100 µM.

Regarding `C=CCC1(OCc2ccccc2)C(=O)C(=O)OC1C1COC(C)(C)O1` (stereo not given), the TGI was more than 100 µM.

In a further assay the test system is EKVX NSCLC. Description: growth of human tumour cells (NCI), 48 h.
For the compound `COc1cc2c(cc1OC)C1C=NC(C2)c2cc(OC)c(OC)cc21` (stereo not given), the TGI is more than 100 µM.

Compound `CCC1(c2ccccc2)C(=O)N=C(c2ccccc2)N1CCc1ccccc1` (stereo not given) yielded a TGI of more than 100 µM.

Compound `COc1ccc(C2SCC(=O)N2c2ccc(-c3ccc(-n4c(-c5ccccc5)nc5ccccc5c4=O)cc3)cc2)cc1OC` (stereo not given) registered a TGI of more than 100 µM.

`C=CCC1(OCc2ccccc2)C(=O)C(=O)OC1C1COC(C)(C)O1` (stereo not given) gave a TGI of more than 100 µM.

The subject of another assay is 786-0 renal. Description: growth of human tumour cells (NCI), 48 h.
Turning to `COc1cc2c(cc1OC)C1C=NC(C2)c2cc(OC)c(OC)cc21` (stereo not given), the TGI was more than 100 µM.

`CCC1(c2ccccc2)C(=O)N=C(c2ccccc2)N1CCc1ccccc1` (stereo not given) had a TGI of more than 100 µM.

On to `COc1ccc(C2SCC(=O)N2c2ccc(-c3ccc(-n4c(-c5ccccc5)nc5ccccc5c4=O)cc3)cc2)cc1OC` (stereo not given), for which the TGI was more than 100 µM.

In turn, `C=CCC1(OCc2ccccc2)C(=O)C(=O)OC1C1COC(C)(C)O1` (stereo not given) displayed a TGI of more than 100 µM.

A further assay has as its system NCI-H522 lung. Description: growth of human tumour cells (NCI), 48 h.
`COc1cc2c(cc1OC)C1C=NC(C2)c2cc(OC)c(OC)cc21` (stereo not given) gave a TGI of more than 100 µM.

`CCC1(c2ccccc2)C(=O)N=C(c2ccccc2)N1CCc1ccccc1` (stereo not given) gave a TGI of more than 100 µM.

Turning to `C=CCC1(OCc2ccccc2)C(=O)C(=O)OC1C1COC(C)(C)O1` (stereo not given), the TGI was more than 100 µM.

The subject of the next assay is BT-549 breast. Description: growth of human tumour cells (NCI), 48 h.
Take `COc1cc2c(cc1OC)C1C=NC(C2)c2cc(OC)c(OC)cc21` (stereo not given): the TGI is more than 100 µM.

In turn, `CCC1(c2ccccc2)C(=O)N=C(c2ccccc2)N1CCc1ccccc1` (stereo not given) displayed a TGI of more than 100 µM.

Regarding `COc1ccc(C2SCC(=O)N2c2ccc(-c3ccc(-n4c(-c5ccccc5)nc5ccccc5c4=O)cc3)cc2)cc1OC` (stereo not given), the TGI is 51.1 µM.

`C=CCC1(OCc2ccccc2)C(=O)C(=O)OC1C1COC(C)(C)O1` (stereo not given) showed a TGI of more than 100 µM.

A further assay has as its system A498 renal. Description: growth of human tumour cells (NCI), 48 h.
As to `COc1cc2c(cc1OC)C1C=NC(C2)c2cc(OC)c(OC)cc21` (stereo not given), the TGI is more than 100 µM.

In the case of `CCC1(c2ccccc2)C(=O)N=C(c2ccccc2)N1CCc1ccccc1` (stereo not given), the TGI was more than 100 µM.

`COc1ccc(C2SCC(=O)N2c2ccc(-c3ccc(-n4c(-c5ccccc5)nc5ccccc5c4=O)cc3)cc2)cc1OC` (stereo not given) showed a TGI of more than 100 µM.

`C=CCC1(OCc2ccccc2)C(=O)C(=O)OC1C1COC(C)(C)O1` (stereo not given) came in with a TGI of more than 100 µM.

A further assay concerns COLO 205 colon. Description: growth of human tumour cells (NCI), 48 h.
Consider `COc1cc2c(cc1OC)C1C=NC(C2)c2cc(OC)c(OC)cc21` (stereo not given), for which the TGI was more than 100 µM.

Take `CCC1(c2ccccc2)C(=O)N=C(c2ccccc2)N1CCc1ccccc1` (stereo not given): the TGI is more than 100 µM.

`COc1ccc(C2SCC(=O)N2c2ccc(-c3ccc(-n4c(-c5ccccc5)nc5ccccc5c4=O)cc3)cc2)cc1OC` (stereo not given) gave a TGI of more than 100 µM.

`C=CCC1(OCc2ccccc2)C(=O)C(=O)OC1C1COC(C)(C)O1` (stereo not given) had a TGI of more than 100 µM.

For a further assay, the system named is MALME-3M melanoma. Description: growth of human tumour cells (NCI), 48 h.
Compound `CCC1(c2ccccc2)C(=O)N=C(c2ccccc2)N1CCc1ccccc1` (stereo not given) returned a TGI of more than 100 µM.

`COc1ccc(C2SCC(=O)N2c2ccc(-c3ccc(-n4c(-c5ccccc5)nc5ccccc5c4=O)cc3)cc2)cc1OC` (stereo not given) registered a TGI of more than 100 µM.

Turning to `C=CCC1(OCc2ccccc2)C(=O)C(=O)OC1C1COC(C)(C)O1` (stereo not given), the TGI was more than 100 µM.

The test system of another assay is SK-MEL-2 melanoma. Description: growth of human tumour cells (NCI), 48 h.
In turn, `COc1cc2c(cc1OC)C1C=NC(C2)c2cc(OC)c(OC)cc21` (stereo not given) came in with a TGI of more than 100 µM.

`CCC1(c2ccccc2)C(=O)N=C(c2ccccc2)N1CCc1ccccc1` (stereo not given) displayed a TGI of more than 100 µM.

In turn, `C=CCC1(OCc2ccccc2)C(=O)C(=O)OC1C1COC(C)(C)O1` (stereo not given) returned a TGI of more than 100 µM.

In the next assay the test system is SF-295 CNS. Description: growth of human tumour cells (NCI), 48 h.
With `COc1cc2c(cc1OC)C1C=NC(C2)c2cc(OC)c(OC)cc21` (stereo not given), the TGI was more than 100 µM.

As to `CCC1(c2ccccc2)C(=O)N=C(c2ccccc2)N1CCc1ccccc1` (stereo not given), the TGI is more than 100 µM.

The compound `COc1ccc(C2SCC(=O)N2c2ccc(-c3ccc(-n4c(-c5ccccc5)nc5ccccc5c4=O)cc3)cc2)cc1OC` (stereo not given) gave a TGI of 33.5 µM.

The compound `C=CCC1(OCc2ccccc2)C(=O)C(=O)OC1C1COC(C)(C)O1` (stereo not given) came in with a TGI of more than 100 µM.

A further assay concerns HL-60(TB) leukemia. Description: growth of human tumour cells (NCI), 48 h.
As to `COc1cc2c(cc1OC)C1C=NC(C2)c2cc(OC)c(OC)cc21` (stereo not given), the TGI is more than 100 µM.

`CCC1(c2ccccc2)C(=O)N=C(c2ccccc2)N1CCc1ccccc1` (stereo not given): the TGI was more than 100 µM.

As for `COc1ccc(C2SCC(=O)N2c2ccc(-c3ccc(-n4c(-c5ccccc5)nc5ccccc5c4=O)cc3)cc2)cc1OC` (stereo not given), the TGI is more than 100 µM.

Turning to `C=CCC1(OCc2ccccc2)C(=O)C(=O)OC1C1COC(C)(C)O1` (stereo not given), the TGI was more than 100 µM.

The subject of the next assay is NCI-H226 lung. Description: growth of human tumour cells (NCI), 48 h.
Consider `COc1cc2c(cc1OC)C1C=NC(C2)c2cc(OC)c(OC)cc21` (stereo not given), for which the TGI is more than 100 µM.

In turn, `CCC1(c2ccccc2)C(=O)N=C(c2ccccc2)N1CCc1ccccc1` (stereo not given) yielded a TGI of more than 100 µM.

On to `COc1ccc(C2SCC(=O)N2c2ccc(-c3ccc(-n4c(-c5ccccc5)nc5ccccc5c4=O)cc3)cc2)cc1OC` (stereo not given), for which the TGI was more than 100 µM.

With `C=CCC1(OCc2ccccc2)C(=O)C(=O)OC1C1COC(C)(C)O1` (stereo not given), the TGI was more than 100 µM.

The test system of a further assay is KM12 colon. Description: growth of human tumour cells (NCI), 48 h.
For `COc1cc2c(cc1OC)C1C=NC(C2)c2cc(OC)c(OC)cc21` (stereo not given), the TGI was more than 100 µM.

In turn, `CCC1(c2ccccc2)C(=O)N=C(c2ccccc2)N1CCc1ccccc1` (stereo not given) registered a TGI of more than 100 µM.

`COc1ccc(C2SCC(=O)N2c2ccc(-c3ccc(-n4c(-c5ccccc5)nc5ccccc5c4=O)cc3)cc2)cc1OC` (stereo not given) came in with a TGI of 28.3 µM.

On to `C=CCC1(OCc2ccccc2)C(=O)C(=O)OC1C1COC(C)(C)O1` (stereo not given), for which the TGI was more than 100 µM.

The next assay has as its system HT29 colon. Description: growth of human tumour cells (NCI), 48 h.
In the case of `COc1cc2c(cc1OC)C1C=NC(C2)c2cc(OC)c(OC)cc21` (stereo not given), the TGI is more than 100 µM.

For `CCC1(c2ccccc2)C(=O)N=C(c2ccccc2)N1CCc1ccccc1` (stereo not given), the TGI was more than 100 µM.
